According to ChEMBL document CHEMBL1201862, “PubChem BioAssay data set” (2004):
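Briefly, cells in 96-well plates were exposed to five compound concentrations for 48 h, and endpoints were estimated by linear interpolation. At the GI50, growth is halved.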 Calls of active or inactive are those of the source. No stated cut-off is given here; in the data, active = GI50 up to about 1.1 µM and inactive = higher.

Key:
Assay in all cases: NCI tumour cell line growth inhibition, 48 h
HL-60 = tested on: HL-60
HCC 2998 = tested on: HCC 2998
OVCAR-3 = tested on: OVCAR-3
KM12 = tested on: KM12
SR = tested on: SR
NCI-H226 = tested on: NCI-H226
SNB-75 = tested on: SNB-75
EKVX = tested on: EKVX
Malme-3M = tested on: Malme-3M
NCI-H460 = tested on: NCI-H460
UACC-257 = tested on: UACC-257
786-0 = tested on: 786-0
LOX IMVI = tested on: LOX IMVI
TK-10 = tested on: TK-10
HT-29 = tested on: HT-29
SW-620 = tested on: SW-620
SK-MEL-2 = tested on: SK-MEL-2
HCT-15 = tested on: HCT-15
U-251 = tested on: U-251
MCF7 = tested on: MCF7

Compound | GI50 (HL-60) | GI50 (HCC 2998) | GI50 (OVCAR-3) | GI50 (KM12) | GI50 (SR) | GI50 (NCI-H226) | GI50 (SNB-75) | GI50 (EKVX) | GI50 (Malme-3M) | GI50 (NCI-H460) | GI50 (UACC-257) | GI50 (786-0) | GI50 (LOX IMVI) | GI50 (TK-10) | GI50 (HT-29) | GI50 (SW-620) | GI50 (SK-MEL-2) | GI50 (HCT-15) | GI50 (U-251) | GI50 (MCF7)
CC(C)(C)OC(=O)N[C@H]1CC(O)c2ccccc2N(CC(=O)O)C1=O (stereo partly specified) | > 100 µM (inactive) | > 100 µM (inactive) | > 100 µM (inactive) | > 100 µM (inactive) | > 100 µM (inactive) | > 100 µM (inactive) | > 100 µM (inactive) | > 100 µM (inactive) | > 100 µM (inactive) | > 100 µM (inactive) | > 100 µM (inactive) | > 100 µM (inactive) | > 100 µM (inactive) | > 100 µM (inactive) | > 100 µM (inactive) | > 100 µM (inactive) | > 100 µM (inactive) | > 100 µM | – | –
N=C(N)/N=C(/C=C/c1ccccc1)CC1OC(=O)c2ccccc21 (stereo unspecified) | > 100 µM (inactive) | > 100 µM (inactive) | – | > 100 µM (inactive) | > 100 µM (inactive) | > 100 µM (inactive) | > 100 µM (inactive) | > 100 µM (inactive) | > 100 µM (inactive) | > 100 µM (inactive) | > 100 µM (inactive) | > 100 µM (inactive) | > 100 µM (inactive) | – | > 100 µM (inactive) | > 100 µM (inactive) | > 100 µM (inactive) | > 100 µM | > 100 µM (inactive) | –
COc1ccc(NC(=O)C2=CC(=O)c3ccc(O)cc3C2=O)c(OC)c1 | > 100 µM (inactive) | > 100 µM (inactive) | > 100 µM (inactive) | > 100 µM (inactive) | > 100 µM (inactive) | > 100 µM (inactive) | > 100 µM (inactive) | > 100 µM (inactive) | > 100 µM (inactive) | > 100 µM (inactive) | > 100 µM (inactive) | > 100 µM (inactive) | > 100 µM (inactive) | > 100 µM (inactive) | > 100 µM (inactive) | > 100 µM (inactive) | – | > 100 µM | > 100 µM (inactive) | –
COc1ccc2c(c1)[n+]([O-])c(C(=O)C/C(=N/OCCCc1ccccc1)C(=O)NC13CC4CC(CC(C4)C1)C3)c(C)[n+]2[O-] | > 100 µM (inactive) | > 100 µM (inactive) | > 100 µM (inactive) | > 100 µM (inactive) | > 100 µM (inactive) | > 100 µM (inactive) | > 100 µM (inactive) | > 100 µM (inactive) | > 100 µM (inactive) | > 100 µM (inactive) | > 100 µM (inactive) | > 100 µM (inactive) | > 100 µM (inactive) | > 100 µM (inactive) | > 100 µM (inactive) | > 100 µM (inactive) | > 100 µM (inactive) | > 100 µM | > 100 µM (inactive) | –
Nc1ccc(CCN2CCN(c3cccc(C(F)(F)F)c3)CC2)cc1 | 9.51 µM (inactive) | 17.3 µM (inactive) | 91.4 µM (inactive) | > 100 µM (inactive) | 58.5 µM (inactive) | 91.4 µM (inactive) | > 100 µM (inactive) | 55.5 µM (inactive) | > 100 µM (inactive) | > 100 µM (inactive) | 47 µM (inactive) | 84.3 µM (inactive) | > 100 µM (inactive) | > 100 µM (inactive) | 70 µM (inactive) | – | – | > 100 µM | 91.2 µM (inactive) | –
Cc1cc(=O)oc2cc3c(cc12)Oc1ccccc1O3 | > 10 µM (inactive) | > 10 µM (inactive) | > 100 µM (inactive) | > 100 µM (inactive) | > 100 µM (inactive) | > 100 µM (inactive) | 21.1 µM (inactive) | > 10 µM (inactive) | > 100 µM (inactive) | 51.9 µM (inactive) | > 100 µM (inactive) | > 100 µM (inactive) | 54.6 µM (inactive) | > 100 µM (inactive) | > 100 µM (inactive) | > 100 µM (inactive) | > 100 µM (inactive) | > 100 µM | 45.1 µM (inactive) | –
CCCCCCCCCCCCCCCc1ccc(OCC(O)CO)cc1 (stereo unspecified) | 27.7 µM (inactive) | 22.9 µM (inactive) | 23 µM (inactive) | 17.2 µM (inactive) | > 100 µM (inactive) | 25.7 µM (inactive) | 27 µM (inactive) | 31.9 µM (inactive) | 22.4 µM (inactive) | 24.3 µM (inactive) | 38.8 µM (inactive) | – | 18.2 µM (inactive) | > 100 µM (inactive) | 21.7 µM (inactive) | 22.3 µM (inactive) | 18.9 µM (inactive) | 81.8 µM | 23.7 µM (inactive) | –
C1=CC2SSSC2C1 (stereo unspecified) | > 100 µM (inactive) | > 100 µM (inactive) | > 100 µM (inactive) | > 100 µM (inactive) | > 100 µM (inactive) | > 100 µM (inactive) | > 100 µM (inactive) | > 100 µM (inactive) | > 100 µM (inactive) | > 100 µM (inactive) | > 100 µM (inactive) | > 100 µM (inactive) | > 100 µM (inactive) | > 100 µM (inactive) | > 100 µM (inactive) | > 100 µM (inactive) | > 100 µM (inactive) | > 100 µM | > 100 µM (inactive) | –
CCCN1C(=O)CC(C)N(Cc2ccccc2Cl)C1=S (stereo unspecified) | 37.4 µM (inactive) | – | 26.1 µM (inactive) | 28.9 µM (inactive) | – | – | – | 27.9 µM (inactive) | 25.4 µM (inactive) | 31 µM (inactive) | 17.2 µM (inactive) | 36.4 µM (inactive) | 22.3 µM (inactive) | 25 µM (inactive) | 37.9 µM (inactive) | 30.8 µM (inactive) | 21.7 µM (inactive) | 35.2 µM | 24 µM (inactive) | 26.5 µM (inactive)
S=C(N/N=C/c1ccccc1)NC1CC(c2ccccc2)Oc2ccccc21 (stereo unspecified) | – | > 100 µM (inactive) | 8.95 µM (inactive) | > 100 µM (inactive) | > 100 µM (inactive) | > 100 µM (inactive) | 7.16 µM (inactive) | 18.8 µM (inactive) | 68.1 µM (inactive) | 23.1 µM (inactive) | – | 67 µM (inactive) | > 100 µM (inactive) | > 10 µM (inactive) | 53 µM (inactive) | > 100 µM (inactive) | > 100 µM (inactive) | – | 33.4 µM (inactive) | –
CCOc1ccc(NCC2CC/C(=C\c3ccc(Cl)cc3)C2=O)cc1 (stereo unspecified) | 1.74 µM (inactive) | 13 µM (inactive) | > 36.9 µM (inactive) | 14.2 µM (inactive) | 12.1 µM (inactive) | > 100 µM (inactive) | > 44.5 µM (inactive) | 38.6 µM (inactive) | 34.5 µM (inactive) | 89.3 µM (inactive) | > 38.9 µM (inactive) | 13 µM (inactive) | 19.4 µM (inactive) | 34.6 µM (inactive) | > 42.1 µM (inactive) | 17.1 µM (inactive) | 22.4 µM (inactive) | 7.73 µM | 25.8 µM (inactive) | –
CN/C(=N\C#N)N(Cc1ccccc1)Cc1ccccc1 | > 100 µM (inactive) | > 100 µM (inactive) | > 100 µM (inactive) | > 100 µM (inactive) | > 100 µM (inactive) | > 100 µM (inactive) | > 100 µM (inactive) | > 100 µM (inactive) | > 100 µM (inactive) | > 100 µM (inactive) | > 100 µM (inactive) | > 100 µM (inactive) | > 100 µM (inactive) | > 100 µM (inactive) | > 100 µM (inactive) | > 100 µM (inactive) | > 100 µM (inactive) | > 100 µM | > 100 µM (inactive) | –
COc1cc(CC2c3cc(OC)c(OC)cc3CCN2C)c(C(=O)O)cc1OC (stereo unspecified) | > 100 µM (inactive) | > 100 µM (inactive) | > 100 µM (inactive) | > 100 µM (inactive) | > 100 µM (inactive) | > 100 µM (inactive) | > 100 µM (inactive) | > 100 µM (inactive) | > 100 µM (inactive) | – | > 100 µM (inactive) | > 100 µM (inactive) | > 100 µM (inactive) | > 100 µM (inactive) | > 100 µM (inactive) | > 100 µM (inactive) | > 100 µM (inactive) | – | > 100 µM (inactive) | –
COc1ccc(CCN(C)C2CCC(C#N)(c3ccc(OC)c(OC)c3)CC2)cc1OC (stereo unspecified) | 71 µM (inactive) | 34.8 µM (inactive) | > 100 µM (inactive) | > 100 µM (inactive) | > 100 µM (inactive) | > 100 µM (inactive) | > 100 µM (inactive) | > 100 µM (inactive) | > 100 µM (inactive) | > 100 µM (inactive) | > 100 µM (inactive) | > 100 µM (inactive) | > 100 µM (inactive) | > 100 µM (inactive) | 34.4 µM (inactive) | > 100 µM (inactive) | > 100 µM (inactive) | > 100 µM | > 100 µM (inactive) | –
O=C(N/N=C(COc1ccccc1)\N=C\c1ccncc1)c1ccncc1 | > 100 µM (inactive) | > 100 µM (inactive) | > 100 µM (inactive) | > 100 µM (inactive) | – | – | 34.5 µM (inactive) | > 100 µM (inactive) | – | > 100 µM (inactive) | > 100 µM (inactive) | > 100 µM (inactive) | > 100 µM (inactive) | > 100 µM (inactive) | > 100 µM (inactive) | > 100 µM (inactive) | > 100 µM (inactive) | > 100 µM | > 100 µM (inactive) | > 100 µM (inactive)
CCOC(=O)/C(=C/c1ccccc1)N(CC)CC | > 100 µM (inactive) | > 100 µM (inactive) | > 100 µM (inactive) | > 100 µM (inactive) | > 100 µM (inactive) | > 100 µM (inactive) | – | > 100 µM (inactive) | > 100 µM (inactive) | > 100 µM (inactive) | > 100 µM (inactive) | > 100 µM (inactive) | 94.4 µM (inactive) | > 100 µM (inactive) | > 100 µM (inactive) | > 100 µM (inactive) | > 100 µM (inactive) | > 100 µM | > 100 µM (inactive) | –
